Results: patent US7713994B2 (Wyeth LLC, priority 2005, dated 2010)
Read-outs that look alike come from different tables or passages of the source.

Tests used:
cyclin D1/cdk 4 enzyme = biological target: T1, cyclin D1/cdk 4 enzyme (Homo sapiens, UniProt P11802); experiment: CDK4 ELISA kinase assay (phospho-Rb ser 795 detection); format: biochemical
T1 construct: made in house; host or cells: Sf9 insect cells, recombinant baculovirus
Summary of the method: (§1)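 GST-Rb C-terminal fragment coated on wells; kinase reaction: 200 μM ATP, 0.5 mg/ml BSA, HEPES pH 7.5, 10 mM MgCl2, baculovirus/Sf9 cyclin-CDK, 30° C, 1 h. Readout anti-phospho-Rb Ser795, HRP, TMB, A450. Test compound 10 ug/ml final.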

cyclin E/CDK2 enzyme = biological target: T2, cyclin E/CDK2 enzyme (Homo sapiens, UniProt P24941); experiment: CDK2 ELISA kinase assay (phospho-Rb ser 795 detection); format: biochemical
T2 construct: made in house; host or cells: Sf9 insect cells, recombinant baculovirus
Summary of the method: as §1

cyclin B/CDK1 enzyme = biological target: T3, cyclin B/CDK1 enzyme (Homo sapiens, UniProt P06493); experiment: CDK1 ELISA kinase assay (phospho-Rb ser 795 detection); format: biochemical
T3 construct: purchased New England BioLabs; host or cells: Sf9 insect cells, recombinant baculovirus
T3 sequence (P06493 whole entry): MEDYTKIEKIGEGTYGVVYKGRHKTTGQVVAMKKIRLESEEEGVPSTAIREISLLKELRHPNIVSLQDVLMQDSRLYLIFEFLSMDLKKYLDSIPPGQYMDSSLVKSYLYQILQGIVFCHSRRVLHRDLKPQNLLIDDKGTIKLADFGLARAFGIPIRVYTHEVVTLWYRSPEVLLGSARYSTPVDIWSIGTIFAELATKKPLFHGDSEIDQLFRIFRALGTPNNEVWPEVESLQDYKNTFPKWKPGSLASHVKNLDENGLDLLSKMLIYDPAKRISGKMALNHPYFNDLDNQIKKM
T3 sequence (P14635 whole entry partner): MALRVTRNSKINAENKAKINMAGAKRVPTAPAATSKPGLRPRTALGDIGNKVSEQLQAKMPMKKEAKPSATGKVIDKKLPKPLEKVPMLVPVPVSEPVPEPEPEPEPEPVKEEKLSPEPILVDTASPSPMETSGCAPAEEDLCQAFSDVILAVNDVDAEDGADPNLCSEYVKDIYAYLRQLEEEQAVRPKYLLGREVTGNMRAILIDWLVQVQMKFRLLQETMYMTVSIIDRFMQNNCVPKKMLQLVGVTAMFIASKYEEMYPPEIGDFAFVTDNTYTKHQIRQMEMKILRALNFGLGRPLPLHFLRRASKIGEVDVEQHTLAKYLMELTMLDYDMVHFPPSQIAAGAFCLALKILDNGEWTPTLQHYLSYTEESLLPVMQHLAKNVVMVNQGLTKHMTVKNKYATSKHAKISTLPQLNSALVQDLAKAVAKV
Summary of the method: as §1

BT474 = experiment: Cytotoxicity assay (SRB), BT474; format: cell-based
Summary of the method: (§2)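 Cells grown in RPMI 1640 with 5% FBS were treated with compound for three days (HCT-116, LoVo, MCF-7) or six days (BT474). Viable cell mass was quantified by sulforhodamine B staining of TCA-fixed protein and read at 540 nm.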

HCT-116 = experiment: Cytotoxicity assay (SRB), HCT-116; format: cell-based; conditions: HCT116 cells, SRB, read-out: In Vitro Cellular Activity IC50 HCT116
Summary of the method: as §2

LoVo = experiment: Cytotoxicity assay (SRB), LoVo; format: cell-based; conditions: LoVo cells, SRB, read-out: In Vitro Cellular Activity IC50 LOVO
Summary of the method: as §2

MCF-7 = experiment: Cytotoxicity assay (SRB), MCF-7; format: cell-based; conditions: MCF-7 cells, SRB, read-out: In Vitro Cellular Activity IC50 MCF-7
Summary of the method: as §2

[1] = In Vitro Enzyme Assays, 200 μM ATP, read-out: CDK4 IC50
[2] = In Vitro Enzyme Assays, read-out: CDK2 IC50
[3] = In Vitro Enzyme Assays, read-out: CDK1 IC50
[4] = Homo sapiens, BT-474, 144 h, BT474 cells, SRB, 6 days; read-out: In Vitro Cellular Activity IC50 BT474
[5] = Homo sapiens, HCT-116, 72 h, three days
[6] = Homo sapiens, LoVo, 72 h, three days
[7] = Homo sapiens, MCF7, 72 h, three days
[8] = In Vitro Enzyme Assay, cyclin D1/cdk 4, read-out: CDK4 IC50
[9] = In Vitro Enzyme Assay, cyclin E/CDK2, read-out: CDK2 IC50
[10] = In Vitro Enzyme Assay, cyclin B/CDK1, read-out: CDK1 IC50
[11] = In Vitro Enzyme Assay, read-out: CDK4 IC50
[12] = In Vitro Enzyme Assay, read-out: CDK2 IC50
[13] = In Vitro Enzyme Assay, read-out: CDK1 IC50
[14] = Homo sapiens, BT-474, 144 h, BT474 cells, 6 days, SRB; read-out: In Vitro Cellular Activity IC50 BT474
[15] = Homo sapiens, HCT-116, 72 h, 3 days
[16] = Homo sapiens, LoVo, 72 h, 3 days
[17] = Homo sapiens, MCF7, 72 h, 3 days

T1 sequence (P11802 whole entry, species assumed): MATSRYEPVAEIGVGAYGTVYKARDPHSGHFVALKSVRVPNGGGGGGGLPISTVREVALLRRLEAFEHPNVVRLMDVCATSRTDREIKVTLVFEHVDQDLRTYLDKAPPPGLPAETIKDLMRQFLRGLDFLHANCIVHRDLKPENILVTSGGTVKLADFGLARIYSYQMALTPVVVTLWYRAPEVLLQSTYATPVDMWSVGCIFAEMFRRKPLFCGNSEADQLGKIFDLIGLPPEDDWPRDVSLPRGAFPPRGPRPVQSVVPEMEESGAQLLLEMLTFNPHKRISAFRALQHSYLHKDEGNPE
T1 sequence (P24385 whole entry partner, species assumed): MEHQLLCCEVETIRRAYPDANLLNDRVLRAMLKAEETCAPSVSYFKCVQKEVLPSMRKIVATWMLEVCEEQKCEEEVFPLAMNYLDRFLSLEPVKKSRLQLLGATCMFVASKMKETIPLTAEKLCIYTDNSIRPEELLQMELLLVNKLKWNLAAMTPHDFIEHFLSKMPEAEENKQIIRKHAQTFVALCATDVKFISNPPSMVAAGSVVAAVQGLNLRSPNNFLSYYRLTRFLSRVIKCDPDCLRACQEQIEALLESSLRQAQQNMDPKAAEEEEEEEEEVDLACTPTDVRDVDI

| Compound | IC50 (cyclin D1/cdk 4 enzyme; [1]) | IC50 (cyclin E/CDK2 enzyme; [2]) | IC50 (cyclin B/CDK1 enzyme; [3]) | IC50 (cyclin D1/cdk 4 enzyme; [8]) | IC50 (cyclin E/CDK2 enzyme; [9]) | IC50 (cyclin B/CDK1 enzyme; [10]) | IC50 (BT474; [14]) | IC50 (HCT-116; [15]) | IC50 (LoVo; [16]) | IC50 (MCF-7; [17]) | further results |
| --- | --- | --- | --- | --- | --- | --- | --- | --- | --- | --- | --- |
| CCN(CC)CCCCN/C=C1\C(=O)NC(=O)c2ccc(Br)cc21 [Example 308, (Z)-6-Bromo-4-((4-(diethylamino)butylamino)methylene)isoquinoline-1,3(2H,4H)-dione] | 2.6 µM | > 50 µM | > 50 µM |  |  |  |  |  |  |  | IC50 (BT474; [4]): 23 µM; IC50 (HCT-116; [5]): 21 µM; IC50 (LoVo; [6]): 16 µM; IC50 (MCF-7; [7]): 23 µM |
| 6-Bromo-4-{[4-(4-methyl-piperazin-1-yl)-phenylamino]-methylene}-1,4-dihydro-2H-isoquinolin-3-one & 8-Bromo-4-{[4-(4-methyl-piperazin-1-yl)-phenylamino]-methylene}-1,4-dihydro-2H-isoquinolin-3-one [Example 845] |  |  |  | 2.3 µM | > 50 µM | > 50 µM |  |  |  |  | IC50 (BT474; BT474 cells, 6 days, SRB; read-out: In Vitro Cellular Activity IC50 BT474): 7.5 µM; IC50 (HCT-116; 3 days): 4.2 µM; IC50 (LoVo; 3 days): 2.5 µM; IC50 (MCF-7; 3 days): 4.5 µM |
| CN1Cc2ccc(N/C=C3\C(=O)NC(=O)c4ccc(Br)cc43)cc2C1 [Example 868, (4Z)-6-Bromo-4-{[(2-methyl-2,3-dihydro-1H-isoindol-5-yl)amino]methylene}isoquinoline-1,3(2H,4H)-dione] |  |  |  |  |  |  | 6.8 µM | 2.5 µM | 3.9 µM | 5.5 µM | IC50 (cyclin D1/cdk 4 enzyme; [11]): 1.2 µM; IC50 (cyclin E/CDK2 enzyme; [12]): 2.5 µM; IC50 (cyclin B/CDK1 enzyme; [13]): 20.7 µM |
| (4Z)-4-{[(3-Hydroxy-4-propoxybenzyl)amino]methylene}-6-thiene-3-ylisoquinoline-,3(2H,4H)-dione [Example 183] | 0.11 µM | > 50 µM | > 50 µM |  |  |  |  |  |  |  | IC50 (BT474; BT474 cells, SRB, 6 days; read-out: In Vitro Cellular Activity IC50 BT474): 13 µM; IC50 (HCT-116; three days): 8.4 µM; IC50 (LoVo; three days): 12 µM; IC50 (MCF-7; three days): 8.8 µM |
| O=C1NC(=O)c2ccc(-c3cccc([N+](=O)[O-])c3)cc2C1=CNCc1ccc(O)c(O)c1 [Example 820, 4-[(3,4-Dihydroxy-benzylamino)-methylene]-6-(3-nitro-phenyl)-4H-isoquinoline-1,3-dione] |  |  |  | 2.1 µM | 27.1 µM | > 50 µM | > 50 µM | 41.5 µM | 47.9 µM | > 50 µM |  |
| O=C1NC(=O)c2ccc(-c3ccsc3)cc2/C1=C/Nc1ccc(CN2CCC[C@@H]2CO)cc1 (stereo in doubt) [Example 421, 4-{[4-(2-Hydroxymethyl-pyrrolidin-1-ylmethyl)-phenylamino]-methylene}-6-thiophen-3-yl-4H-isoquinoline-1,3-dione] | 0.05 µM | > 50 µM | > 50 µM |  |  |  | 2.9 µM | 2.6 µM | 2.7 µM | 3.8 µM |  |
| CN1CCN(c2ccc(NC=C3C(=O)NC(=O)c4ccc(C=Cn5ccnc5)cc43)cc2)CC1 [Example 680, 6-(2-Imidazol-1-yl-vinyl)-4-{[4-(4-methyl-piperazin-1-yl)-phenylamino]-methylene}-4H-isoquinoline-1,3-dione] |  |  |  | 0.23 µM | > 50 µM | > 50 µM | 15.2 µM | 5.9 µM | 4.7 µM | 6.9 µM |  |
| O=C1NC(=O)c2ccc(-c3cccc(F)c3)cc2C1=CNCc1ccc(O)c(O)c1 [Example 768, 4-[(3,4-Dihydroxy-benzylamino)-methylene]-6-(3-fluoro-phenyl)-4H-isoquinoline-1,3-dione] |  |  |  | 0.55 µM | 9.6 µM | 20.6 µM | 29.1 µM | 27.4 µM | 25.7 µM | 28.4 µM |  |
| O=C1NC(=O)c2ccc(I)cc2/C1=C/Nc1ccc(C2CCCN2CCO)cc1 (centres unmarked) [Example 464, 4-({4-[1-(2-Hydroxy-ethyl)-pyrrolidin-2-yl]-phenylamino}-methylene)-6-iodo-4H-isoquinoline-1,3-dione] |  |  |  | 0.14 µM | > 50 µM | > 50 µM | 6.6 µM | 3.2 µM | 4.6 µM | 2.4 µM |  |
| O=C1NC(=O)c2ccc(-c3ccc4c(c3)OCO4)cc2C1=CNCc1ccc(O)c(O)c1 [Example 812, 6-Benzo[1,3]dioxol-5-yl-4-[(3,4-dihydroxy-benzylamino)-methylene]-4H-isoquinoline-1,3-dione] |  |  |  | 0.13 µM | 28.3 µM | > 50 µM | > 50 µM | 44.7 µM | > 50 µM | 49.8 µM |  |
| CN(C)CC1CCCN1c1ccc(N/C=C2\C(=O)NC(=O)c3ccc(I)cc32)cc1F (centres unmarked) [Example 412, 4-{[4-(2-Dimethylaminomethyl-pyrrolidin-1-yl)-3-fluoro-phenylamino]-methylene}-6-iodo-4H-isoquinoline-1,3-dione] | 3.3 µM | > 50 µM | > 50 µM |  |  |  | 5.6 µM | 1.8 µM | 3.2 µM | 4.3 µM |  |
| COc1ccc(CNC=C2C(=O)NC(=O)c3ccc(-c4ccco4)cc32)cc1O [Example 837, 6-Furan-2-yl-4-[(3-hydroxy-4-methoxy-benzylamino)-methylene]-4H-isoquinoline-1,3-dione] |  |  |  | 0.02 µM | 24.2 µM | > 50 µM | 1.5 µM | 10.6 µM | 8.5 µM | 3.6 µM |  |
| CCN1CCCC1c1ccc(N/C=C2\C(=O)NC(=O)c3ccc(-c4ccoc4)cc32)cc1 (centres unmarked) [Example 473, 4-{[4-(1-Ethyl-pyrrolidin-2-yl)-phenylamino]-methylene}-6-furan-3-yl-4H-isoquinoline-1,3-dione] |  |  |  | 0.05 µM | > 50 µM | > 50 µM | 1.5 µM | 2.4 µM | 2.3 µM | 2 µM |  |
| CN(C)CCOc1ccc(N/C=C2\C(=O)NC(=O)c3ccc(Br)cc32)cc1 [Example 867, (4Z)-6-Bromo-4-[({4-[2-(dimethylamino)ethoxy]phenyl}amino)methylene]isoquinoline-1,3(2H,4H)-dione] |  |  |  |  |  |  | 8.3 µM | 3.5 µM | 5.3 µM | 6.7 µM | IC50 (cyclin D1/cdk 4 enzyme; [11]): 0.48 µM; IC50 (cyclin E/CDK2 enzyme; [12]): > 50 µM; IC50 (cyclin B/CDK1 enzyme; [13]): > 50 µM |
| CCCOc1ccc(CN/C=C2\C(=O)NC(=O)c3ccc(I)cc32)cc1OC(=O)CCl [Example 293, 5-({[(Z)-(6-Iodo-1,3-dioxo-2,3-dihydroisoquinolin-4(1H)-ylidene)methyl]amino}methyl)-2-propoxyphenyl chloroacetate] | 13.8 µM | > 50 µM | > 50 µM |  |  |  |  |  |  |  | IC50 (BT474; [4]): 0.69 µM; IC50 (HCT-116; [5]): 0.78 µM; IC50 (LoVo; [6]): 0.9 µM; IC50 (MCF-7; [7]): 2.2 µM |
| N=C(N)c1ccc(NC=C2C(=O)NCc3cc(Br)ccc32)cc1 [Example 861, 4-[(7-Bromo-3-oxo-2,3-dihydro-1H-isoquinolin-4-ylidenemethyl)-amino]-benzamidine] |  |  |  | 14.3 µM | 3.6 µM | > 50 µM | 45.4 µM | > 50 µM | > 50 µM | > 50 µM |  |
| O=C1NC(=O)c2ccc(I)cc2/C1=C/Nc1ccc(N2CCN(CC3CC3)CC2)nc1 [Example 415, (4Z)-4-[({6-[4-(Cyclopropylmethyl)piperazin-1-yl]pyridin-3-yl}amino)methylene]-6-iodoisoquinoline-1,3(2H,4H)-dione] | 1.5 µM | > 50 µM | > 50 µM |  |  |  | 2.9 µM | 1.2 µM | 2 µM | 3.6 µM |  |
